Test results taken from patent publication US20030079241A1, “Premalignant, serially-transplantable breast tissue lines and uses thereof” (priority 2001, published 2003).

Test system: HPO line A
Assay: Effect of tamoxifen on tumor development in mice with bilateral implants of HPO line A
Type: in vivo
Conditions: mice receiving bilateral implants of HPO line A; after 15 weeks; all control vehicle mice developed bilateral tumors
Procedure: The instant invention also provides a method of using the above described premalignant serially-transplantable, hyperplastic outgrowth (HPO) breast tissue lines to screen for new chemopreventative agents against breast cancer. The serially-transplantable breast tissue lines are implanted into the inguinal mammary fat pads of syngeneic, non-transgenic recipient mice. Putative chemopreventative agents are administered to a subset of the implanted mice.
Breast tissue lines A, B, C, D, and E from zone 4 all express high levels of estrogen receptor, which is also expressed in human premalignant breast cells. This is important for testing chemopreventive agents that rely on this receptor. Moreover, the effects of tamoxifen on the development of tumors in mice receiving bilateral implants of HPO line A were examined.

SMILES: CC/C(=C(\c1ccccc1)c1ccc(OCCN(C)C)cc1)c1ccccc1 [tamoxifen]
- development of tumors: None of the mice receiving tamoxifen developed tumors after 15 weeks
